The values that follow come from patent US6914122B2 (priority 2000, dated 2005).

One may read the EC50 as the concentration giving half of the maximal effect. A low value points to an effect from little substance. Broadly, the Ki is a dissociation constant, usually derived from enzyme kinetics or from competition with a known ligand.

*1 amine or outer side, *2 acyl side, *3 side chain or, on linkers, in order; H or OH if unused. Where a SMILES comes first, the peptide text is derived from it. Bridges are numbered along the chain shown (N, C = ends). [ ]: non-standard residue; d: D form. Heptanedioyl = O=C(CCCCCC(=O)[*:2])[*:1]; X1 = CCCC(N[*:1])C(=O)C(=O)[*:2]; Chg = N[C@H](C(=O)O)C1CCCCC1; Phg = N[C@H](C(=O)O)c1ccccc1

The target in experiment [1] is T1, HCV serine protease (subtype 1b, 1bNS4A21-32GS-GS NS 3-81 I17K) in HeLa/Huh7 cells (Hepatitis C virus genotype 1b, UniProt P26663, I1043K).
T1 construct: 1bNS4A21-32GS-GS NS 3-81 I17K; expressed in transfected cells; host or cells: HeLa/Huh7 cells
In words: Cell bioassay: HCV serine protease cell-based trans-cleavage assay. Also on record: species or system Hepatitis C virus (subtype 1b).

The target of experiment [2] is Recombinant heterodimeric HCV NS3/NS4A protease (strain 1a) (Hepatitis C virus genotype 1a, UniProt P27958). In words: biochemical. The arrangement: species or system HCV (strain 1a).

As for `CCCC(NC(=O)[C@@H]1Cc2cccc(c2)Oc2ccc(cc2)CCC(=O)N[C@@H](C2CCCCC2)C(=O)O1)C(=O)C(=O)NCC(=O)N[C@H](C(=O)N(C)C)c1ccccc1` (stereo partly drawn) [Example 35], the EC50 in experiment [1] amounted to 20 µM. Besides, the Ki in experiment [2] lay within 1.1 to 100 µM.

`CCCC(NC(=O)C1Cc2cccc(c2)OCCCCCCC(=O)NC(C2CCCCC2)C(=O)O1)C(=O)C(=O)NCC(=O)N[C@H](C(=O)N(C)C)c1ccccc1` (stereo partly drawn) [Example 36] showed an EC50 in experiment [1] of 9 µM. Moreover, the Ki in experiment [2] is 1.1 to 100 µM.

Regarding `CCCC(NC(=O)[C@@H]1CCCCNC(=O)CCCCCC(=O)N[C@@H](C2CCCCC2)C(=O)N1)C(=O)C(=O)NCC(=O)N[C@H](C(N)=O)c1ccccc1` (stereo partly drawn) [Example 53] ([Chg]K[X1]G[Phg]-NH2; linker N-2 via Heptanedioyl), the Ki in experiment [2] was 0.001 to 1 µM.

Turning to `CCCC(NC(=O)C1Cc2cccc(c2)Oc2ccc(cc2)CCC(=O)NCC(=O)N1)C(=O)C(=O)NCC(=O)NC(C(=O)O)c1ccccc1` (stereo not drawn) [Example 10], the Ki in experiment [2] lay in the range of 1.1 to 100 µM.
